Reference: ChEMBL document CHEMBL3045853, “Bifenthrin longevity at the termiticidal application rate” (2012)
Calls of active or inactive are those of the source. The rule behind the calls is not given here.

Legend:
Reticulitermes flavipes [1] = assay: Termiticidal activity against Reticulitermes flavipes assessed as mortality at 0.06 ug/g after 7 days by forced exposure test; assay type: functional
Reticulitermes flavipes [2] = assay: Termiticidal activity against Reticulitermes flavipes assessed as mortality at 0.6 ug/g after 3 days by forced exposure test; assay type: functional
Reticulitermes flavipes [3] = assay: Termiticidal activity against Reticulitermes flavipes assessed as mortality after 4 days by forced exposure test; assay type: functional
Reticulitermes flavipes [4] = assay: Termiticidal activity against Reticulitermes flavipes at 0.69 ug/g after 7 days by forced exposure test; assay type: functional, organism-based
Reticulitermes flavipes [5] = assay: Termiticidal activity against Reticulitermes flavipes assessed as mortality at 6.9 ug/g after 7 days by forced exposure test; assay type: functional
Reticulitermes flavipes [6] = assay: Termiticidal activity against Reticulitermes flavipes after 3 days by forced exposure test; assay type: functional
Reticulitermes flavipes [7] = assay: Termiticidal activity against Reticulitermes flavipes assessed as mortality at 0.6 ug/g by forced exposure test; assay type: functional
Reticulitermes flavipes [8] = assay: Termiticidal activity against Reticulitermes flavipes assessed as mortality at 0.6 ug/g after 10 months by forced exposure test; assay type: functional
Reticulitermes flavipes [9] = assay: Termiticidal activity against Reticulitermes flavipes assessed as mortality at 0.6 ug/g after 5 months by forced exposure test; assay type: functional
Reticulitermes flavipes [10] = assay: Termiticidal activity against Reticulitermes flavipes after 7 days by forced exposure test; assay type: functional, organism-based

N#Cc1nn(-c2c(Cl)cc(C(F)(F)F)cc2Cl)c(N)c1[S+]([O-])C(F)(F)F (configuration not stated) [FIPRONIL]
mortality (Reticulitermes flavipes [1]): 100%
mortality (Reticulitermes flavipes [2]): 100%
LC50 (Reticulitermes flavipes [3]): 0.49 µg/g

O=[N+]([O-])/N=C1\NCCN1Cc1ccc(Cl)nc1 [IMIDACLOPRID]
Activity (Reticulitermes flavipes [4]): inactive
mortality (Reticulitermes flavipes [5]): 80%
Activity (Reticulitermes flavipes [6]): inactive

Cc1c(COC(=O)[C@@H]2[C@H](/C=C(\Cl)C(F)(F)F)C2(C)C)cccc1-c1ccccc1 [BIFENTHRIN]
mortality (Reticulitermes flavipes [7]): 100%
LC50 (Reticulitermes flavipes [6]): 0.074 µg/g
LC95 (Reticulitermes flavipes [6]): 0.724 µg/g
mortality (Reticulitermes flavipes [8]): 73.9%
mortality (Reticulitermes flavipes [9]): 63%
Activity (Reticulitermes flavipes [10]): inactive
